Legend:
[1] = tested on: β-catenin dependent TCF/LEF transcriptional activity; experiment: β-Catenin Stabilization Protocol (β-lactamase reporter assay in Jurkat cells); format: cell-based; conditions: Homo sapiens, 460/530 ratio, read-out: Beta Catenin IC50
Description: GSK-3 phosphorylation of β-catenin targets it to the proteosome for degradation. Inhibition of GSK-3 results in accumulation of β-catenin in the cytosol of cells which through interaction with the transcription factor TCF/LEF translocates to the nucleus and drives the transcription of Wnt-dependent genes. The assay is designed to determine the level of β-catenin dependent TCF/LEF transcriptional activity in a quantitative manner through the use of a β-lactamase reporter assay in Jurkat cells dosed with a compound.
Jurkat β-catenin cells are starved overnight in assay media (1% FBS, 1× Penstrep, RPMI) in the flask. The next day Jurkat β-catenin cells are seeded in 96 well flat bottom plates at a density of 50,000 cells/well in assay media in a volume of 100 ul. The compound is added to the well at a final DMSO concentration of 0.75% and incubated at 37° C. o/n. The next day, 20 uL of 6×CCF4 dye is added to the wells and incubated at room temperature for 1-2 hours. Plates are read on the Cytofluor 4000 series multiwell plate reader and the 460/530 ratio is determined.

CRMP2 = CRMP2 phosphorylation assay; format: cell-based, rat; conditions: E16 hippocampal neurons treated for 7 days
Procedure: GSK-3 phosphorylation regulates CRMP2 which is involved in the control of axon outgrowth and branching (Yoshimura et al. 2005 Cell, Kim et al. 2006 Neuron). Phosphorylation of CRMP2 by GSK-3 reduces CRMP2 binding to microtubules and thereby reduces axon elongation and branching. Conversely, inhibition of GSK-3, especially at levels that selectively affect TYR residue autophosphorylation, enhances these phenotypes. Compounds are tested in E16 rat hippocampal or cortical neurons to determine the ability to increase the level of axonal branching. 1 mg/ml stock of PDL is diluted into 100 μg/ml in DI water. The glass coverslips are coated for at least 1 hour at 37° C. prior to doing the dissection. PDL is aspirated and the plates are rinsed with PBS and air-dried in hood. Cortical or hippocampal lobes are combined with 9 mL of Base media (Neurobasal+Pen/Strep) and put on ice. 1 mL of 10× trypsin solution is added and the mixture is swirled gently. The tissue is then digested via incubation in a 37° C. waterbath for 20 minutes. After 20 minutes, 10 μl/ml DNase (100 μL DNase) is added and the mixture is incubated for another 5 minutes. The cells are spun at 1000 rpm for 1 minute. The enzyme solution is then removed without removing any of the brain fragments sitting on the bottom. […] The cells are counted in a hemacytometer and seeded at 50,000 cells/well in a 12 well plate. […]

IC50 [1]: 0.23 µM
SMILES: Cc1nc(-c2ccccc2Cl)nc(Nc2n[nH]c3ncc(F)cc23)c1C [Compound I-1, N-(2-(2-chlorophenyl)-5,6-dimethylpyrimidin-4-yl)-5-fluoro-1H-pyrazolo[3,4-b]pyridin-3-amine]
Inhibition of GSK-3 phosphorylation of substrate CRMP-2 (CRMP2): correlated with inhibition of GSK-3 pTYR

— patent US8518953B2, “Aminopyrimidines useful as inhibitors of protein kinases” (Vertex Pharmaceuticals Incorporated, priority 2007, dated 2013)
